Test results published in ChEMBL document CHEMBL1146025, “Design, microwave-assisted synthesis, and spasmolytic activity of 2-(alkyloxyaryl)-1H-benzimidazole derivatives as constrained stilbene bioisosteres” (Bioorg Med Chem Lett, 2006).

What was measured:
[1] = species on record: Rattus norvegicus; experiment: Spasmolytic activity in Wistar rat ileum; format: functional
[2] = species on record: Rattus norvegicus; experiment: Potency index, spasmolytic activity in Wistar rat ileum relative to gigantol; format: functional

| Compound | Emax [1] [%] | IC50 [1] [µM] | Ratio IC50 [2] |
| --- | --- | --- | --- |
| Oc1ccccc1-c1nc2ccccc2[nH]1 | 42.4 | 5.15 | 1.13 |
| COc1cc(OC)c(-c2nc3ccccc3[nH]2)cc1OC | 90 | 4 | 1.45 |
| COc1ccccc1-c1nc2ccccc2[nH]1 | 52.8 | 7.7 | 0.75 |
| COc1ccc(-c2nc3ccccc3[nH]2)cc1OC | 55 | 5.6 | 1.04 |
| COc1ccc(-c2nc3ccccc3[nH]2)c(OC)c1OC | 65 | 1.8 | 3.23 |
| CN(C)c1ccc(-c2nc3ccccc3[nH]2)cc1 | 34.9 | 30 | 0.19 |
| c1ccc(COc2ccccc2-c2nc3ccccc3[nH]2)cc1 | 51.4 | 28.2 | 0.21 |
| CCCOc1ccccc1-c1nc2ccccc2[nH]1 | 80 | 1.9 | 3.06 |
| CCOc1ccccc1-c1nc2ccccc2n1CC | 60 | 1.72 | 3.39 |
| O=[N+]([O-])c1ccccc1-c1nc2ccccc2[nH]1 | 11.1 | 78.6 | 0.07 |
| CCOc1ccccc1-c1nc2ccccc2[nH]1 | 50 | 1.94 | 3 |
| Oc1ccc(-c2nc3ccccc3[nH]2)cc1 | 61.2 | 5.25 | 1.11 |
| c1ccc2[nH]c(-c3ccc4c(c3)OCO4)nc2c1 | 59 | 3.4 | 1.71 |
| COc1ccc(-c2nc3ccccc3[nH]2)cc1 | 54.9 | 10.6 | 0.55 |
| c1ccc2[nH]c(-c3ccncc3)nc2c1 | 50 | 190 | 0.03 |
| Clc1ccc(COc2ccccc2-c2nc3ccccc3[nH]2)cc1 | 38.2 | 59 | 0.09 |
| Cc1ccc(COc2ccccc2-c2nc3ccccc3[nH]2)cc1 | 47.7 | 15 | 0.38 |
| COc1cc(-c2nc3ccccc3[nH]2)ccc1O | 70 | 1.19 | 4.9 |
| COc1ccc(Cc2nccc3cc(OC)c(OC)cc23)cc1OC [PAPAVERINE] | 96.7 | – | 3.76 |
